Results from patent US12421249B2, “Inhibitors of APOL1 and methods of using same” (Vertex Pharmaceuticals Incorporated, priority 2020, dated 2025).

Target: T1, APOL1 (Homo sapiens, UniProt O14791)
T1 sequence (O14791 1-398 S342G/I384M): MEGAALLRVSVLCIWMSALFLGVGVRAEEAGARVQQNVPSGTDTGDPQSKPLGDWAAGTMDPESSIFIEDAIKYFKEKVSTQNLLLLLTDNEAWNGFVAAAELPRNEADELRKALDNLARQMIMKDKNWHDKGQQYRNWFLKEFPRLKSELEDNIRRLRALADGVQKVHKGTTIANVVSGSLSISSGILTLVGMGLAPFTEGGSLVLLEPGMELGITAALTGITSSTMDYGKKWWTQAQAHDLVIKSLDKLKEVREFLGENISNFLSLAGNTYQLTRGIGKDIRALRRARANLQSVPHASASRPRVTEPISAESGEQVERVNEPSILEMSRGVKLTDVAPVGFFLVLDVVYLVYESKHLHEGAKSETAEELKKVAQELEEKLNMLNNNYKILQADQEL
Test: Multi-Tox Assay (MultiTox-Fluor Multiplex Cytotoxicity Assay in tet-inducible APOL1 T-REx-HEK293 cells; Table 46 does not say which APOL1 variant G0/G1/G2)
Format: cell-based
Settings: APOL1 variant not given; for IC50: IP50 = IC50 for cell proliferation

| SMILES | Multi-Tox Assay Max Activity (%) | IC50 [nM] | IC90 [nM] |
| --- | --- | --- | --- |
| C[C@H]1C[C@@]2(C[C@@H](c3cn(CCc4ccncn4)nn3)N1)OCC(F)(F)c1cc(Cl)sc12 [Compound 305] | 100.0 | < 50 | – |
| CC(CO)CCn1cc([C@@H]2C[C@]3(C[C@H](C)N2)OCC(F)(F)c2cc(Cl)sc23)nn1 (stereo partly shown) [Compound 306] | 99.0 | > 500 | – |
| C[C@H]1C[C@@]2(C[C@@H](c3cn(CC4CCS(=O)(=O)C4)nn3)N1)OCC(F)(F)c1cc(Cl)sc12 (stereo partly shown) [Compound 307] | 99.0 | < 50 | – |
| C[C@H]1C[C@@]2(C[C@@H](c3cn(Cc4ccc(OC5CCOCC5)cc4)nn3)N1)OCC(F)(F)c1cc(Cl)sc12 [Compound 308] | 95.0 | 50 to 500 | – |
| C[C@H]1C[C@@]2(C[C@@H](c3cn(CC4CCOCC4)nn3)N1)OCC(F)(F)c1cc(Cl)sc12 [Compound 309] | 97.0 | 50 to 500 | – |
| C[C@H]1C[C@@]2(C[C@@H](c3cn(Cc4cccc5c4OCCO5)nn3)N1)OCC(F)(F)c1cc(Cl)sc12 [Compound 310] | 94.0 | 50 to 500 | – |
| C[C@H]1C[C@@]2(C[C@@H](c3cn(CC4CCOC4)nn3)N1)OCC(F)(F)c1cc(Cl)sc12 (stereo partly shown) [Compound 311] | 99.0 | < 50 | – |
| COCC1(Cn2cc([C@@H]3C[C@]4(C[C@H](C)N3)OCC(F)(F)c3cc(Cl)sc34)nn2)CC1 [Compound 312] | 91.0 | > 500 | > 500 |
| C[C@H]1C[C@@]2(C[C@@H](c3cn(Cc4cccc(CO)c4)nn3)N1)OCC(F)(F)c1cc(Cl)sc12 [Compound 313] | 98.0 | 50 to 500 | – |
| C[C@H]1C[C@@]2(C[C@@H](c3cn(CCC4CCCOC4)nn3)N1)OCC(F)(F)c1cc(Cl)sc12 (stereo partly shown) [Compound 314] | 99.0 | < 50 | – |
| Cc1ccnn1CCn1cc([C@@H]2C[C@]3(C[C@H](C)N2)OCC(F)(F)c2cc(Cl)sc23)nn1 [Compound 315] | 98.0 | 50 to 500 | – |
| C[C@H]1C[C@@]2(C[C@@H](c3cn(Cc4ccc(O)nc4)nn3)N1)OCC(F)(F)c1cc(Cl)sc12 [Compound 316] | 95.0 | 50 to 500 | – |
| C[C@H]1C[C@@]2(C[C@@H](c3cn(Cc4cnccn4)nn3)N1)OCC(F)(F)c1cc(Cl)sc12 [Compound 317] | 98.0 | 50 to 500 | – |
| Cc1ncc(Cn2cc([C@@H]3C[C@]4(C[C@H](C)N3)OCC(F)(F)c3cc(Cl)sc34)nn2)cn1 [Compound 318] | 99.0 | < 50 | – |
| COc1cccc(Cn2cc([C@@H]3C[C@]4(C[C@H](C)N3)OCC(F)(F)c3cc(Cl)sc34)nn2)c1 [Compound 319] | 95.0 | 50 to 500 | – |
| C[C@H]1C[C@@]2(C[C@@H](c3cn(Cc4cccc(O)c4)nn3)N1)OCC(F)(F)c1cc(Cl)sc12 [Compound 320] | 95.0 | 50 to 500 | – |
| C[C@H]1C[C@@]2(C[C@@H](c3cn(Cc4cccnn4)nn3)N1)OCC(F)(F)c1cc(Cl)sc12 [Compound 321] | 99.0 | < 50 | – |
| C[C@H]1C[C@@]2(C[C@@H](c3cn(CC(O)c4ccccc4)nn3)N1)OCC(F)(F)c1cc(Cl)sc12 (stereo partly shown) [Compound 322] | 97.0 | 50 to 500 | – |
| COCCn1cc([C@@H]2C[C@]3(C[C@H](C)N2)OCC(F)(F)c2cc(Cl)sc23)nn1 [Compound 323] | 100.0 | < 50 | – |
| C[C@H]1C[C@@]2(C[C@@H](c3cn(CC(F)F)nn3)N1)OCC(F)(F)c1cc(Cl)sc12 [Compound 324] | 96.0 | 50 to 500 | – |
| CCC(O)Cn1cc([C@@H]2C[C@]3(C[C@H](C)N2)OCC(F)(F)c2cc(Cl)sc23)nn1 (stereo partly shown) [Compound 325] | 98.0 | < 50 | – |
| Cc1c(Cn2cc([C@@H]3C[C@]4(C[C@H](C)N3)OCC(F)(F)c3cc(Cl)sc34)nn2)cnn1C [Compound 326] | 97.0 | 50 to 500 | – |
| CC(C)N1CC(Cn2cc([C@@H]3C[C@]4(C[C@H](C)N3)OCC(F)(F)c3cc(Cl)sc34)nn2)CC1=O (stereo partly shown) [Compound 327] | 98.0 | < 50 | – |
| C[C@H]1C[C@@]2(C[C@@H](c3cn(CCC(N)=O)nn3)N1)OCC(F)(F)c1cc(Cl)sc12 [Compound 328] | 100.0 | < 50 | – |
| C[C@H]1C[C@@]2(C[C@@H](c3cn(CC4(F)CCOCC4)nn3)N1)OCC(F)(F)c1cc(Cl)sc12 [Compound 329] | – | > 500 | – |

| SMILES | Multi-Tox Assay Max Activity (%) | IC50 [nM] | IC90 [nM] |
| --- | --- | --- | --- |
| CCn1cc(Cn2cc([C@@H]3C[C@]4(C[C@H](C)N3)OCC(F)(F)c3cc(Cl)sc34)nn2)cn1 [Compound 330] | 99.0 | < 50 | – |
| C[C@H]1C[C@@]2(C[C@@H](c3cn(Cc4cocn4)nn3)N1)OCC(F)(F)c1cc(Cl)sc12 [Compound 331] | 98.0 | < 50 | – |
| C[C@H]1C[C@@]2(C[C@@H](c3cn(Cc4ccccn4)nn3)N1)OCC(F)(F)c1cc(Cl)sc12 [Compound 332] | 96.0 | 50 to 500 | – |
| COc1cc(F)cc(Cn2cc([C@@H]3C[C@]4(C[C@H](C)N3)OCC(F)(F)c3cc(Cl)sc34)nn2)c1 [Compound 333] | 97.0 | 50 to 500 | – |
| Cc1ccc(Cn2cc([C@@H]3C[C@]4(C[C@H](C)N3)OCC(F)(F)c3cc(Cl)sc34)nn2)nc1 [Compound 334] | 96.0 | 50 to 500 | – |
| COc1ccc(Cn2cc([C@@H]3C[C@]4(C[C@H](C)N3)OCC(F)(F)c3cc(Cl)sc34)nn2)cc1 [Compound 335] | 96.0 | 50 to 500 | – |
| Cc1cc(Cn2cc([C@@H]3C[C@]4(C[C@H](C)N3)OCC(F)(F)c3cc(Cl)sc34)nn2)ccn1 [Compound 336] | 99.0 | < 50 | – |
| Cc1nc(Cn2cc([C@@H]3C[C@]4(C[C@H](C)N3)OCC(F)(F)c3cc(Cl)sc34)nn2)oc1C [Compound 337] | 99.0 | < 50 | – |
| Cc1nnc(Cn2cc([C@@H]3C[C@]4(C[C@H](C)N3)OCC(F)(F)c3cc(Cl)sc34)nn2)[nH]1 [Compound 339] | 97.0 | 50 to 500 | – |
| COCCOCCn1cc([C@@H]2C[C@]3(C[C@H](C)N2)OCC(F)(F)c2cc(Cl)sc23)nn1 [Compound 340] | 98.0 | 50 to 500 | – |
| Cc1nccn1CCCn1cc([C@@H]2C[C@]3(C[C@H](C)N2)OCC(F)(F)c2cc(Cl)sc23)nn1 [Compound 341] | 98.0 | 50 to 500 | – |
| COCC(O)Cn1cc([C@@H]2C[C@]3(C[C@H](C)N2)OCC(F)(F)c2cc(Cl)sc23)nn1 (stereo partly shown) [Compound 342] | 98.0 | 50 to 500 | – |
| C[C@H]1C[C@@]2(C[C@@H](c3cn(CC4CCCCO4)nn3)N1)OCC(F)(F)c1cc(Cl)sc12 (stereo partly shown) [Compound 343] | 97.0 | 50 to 500 | – |
| C[C@H]1C[C@@]2(C[C@@H](c3cn(CCCS(C)(=O)=O)nn3)N1)OCC(F)(F)c1cc(Cl)sc12 [Compound 344] | 99.0 | < 50 | – |
| CC(C)C(=O)NCCn1cc([C@@H]2C[C@]3(C[C@H](C)N2)OCC(F)(F)c2cc(Cl)sc23)nn1 [Compound 345] | 99.0 | < 50 | – |
| C[C@H]1C[C@@]2(C[C@@H](c3cn(Cc4nc5ncccc5[nH]4)nn3)N1)OCC(F)(F)c1cc(Cl)sc12 [Compound 346] | 99.0 | 50 to 500 | – |
| C[C@H]1C[C@@]2(C[C@@H](c3cn(Cc4ccccc4S(C)(=O)=O)nn3)N1)OCC(F)(F)c1cc(Cl)sc12 [Compound 347] | 96.0 | 50 to 500 | – |
| COc1ccc(C(O)Cn2cc([C@@H]3C[C@]4(C[C@H](C)N3)OCC(F)(F)c3cc(Cl)sc34)nn2)cc1 (stereo partly shown) [Compound 348] | 97.0 | 50 to 500 | – |
| C[C@H]1C[C@@]2(C[C@@H](c3cn(Cc4n[nH]c5ccccc45)nn3)N1)OCC(F)(F)c1cc(Cl)sc12 [Compound 349] | 91.0 | 50 to 500 | – |
| C[C@H]1C[C@@]2(C[C@@H](c3cn(Cc4ncnc5[nH]ccc45)nn3)N1)OCC(F)(F)c1cc(Cl)sc12 [Compound 350] | 99.0 | < 50 | – |
| Cc1cc(C)nc(CCn2cc([C@@H]3C[C@]4(C[C@H](C)N3)OCC(F)(F)c3cc(Cl)sc34)nn2)c1 [Compound 351] | 98.0 | < 50 | – |
| C[C@H]1C[C@@]2(C[C@@H](c3cn(Cc4ccc(C#N)nc4)nn3)N1)OCC(F)(F)c1cc(Cl)sc12 [Compound 352] | 99.0 | < 50 | – |
| Cc1noc(C)c1Cn1cc([C@@H]2C[C@]3(C[C@H](C)N2)OCC(F)(F)c2cc(Cl)sc23)nn1 [Compound 353] | 100.0 | < 50 | – |
| C[C@H]1C[C@@]2(C[C@@H](c3cn(CCOc4ccccc4F)nn3)N1)OCC(F)(F)c1cc(Cl)sc12 [Compound 354] | 99.0 | 50 to 500 | – |
| C[C@H]1C[C@@]2(C[C@@H](c3cn(Cc4ccc(S(C)(=O)=O)cc4)nn3)N1)OCC(F)(F)c1cc(Cl)sc12 [Compound 355] | 98.0 | 50 to 500 | – |
